Entries after “also recorded” stand apart in the source; their conditions may differ. Like-named read-outs stand apart in the source and are kept apart here.
Key:
[1] = tested on: WNT target genes in IMR90-1 hiPSCs; assay: Microarray and qPCR gene expression of WNT target genes; assay type: cell-based, human; settings: 12, 24 and 72 h after treatment
Description: IMR90-1 iPSCs were cultured in cardiac differentiation medium containing serum. On Day 3, cells were treated with 10 μM KY02111 or 0.1% DMSO for 0, 12, or 24 h. Non-treated cells (0 h), cells treated with KY02111 for 12 h (KY12hr) or 24 h (KY24hr), and cells treated with 0.1% DMSO for 12 h (DMSO12hr) or 24 h (DMSO24hr) were used for microarray analysis. Total RNA was prepared using the RNeasy Mini Kit (Qiagen), according to the manufacturer's instructions. Synthesis of cDNA, in vitro transcription and biotin labeling cRNA, and hybridization to the Human Gene 1.0 ST array (Affymetrix) were performed according to Affymetrix protocols. Hybridized arrays were scanned using an Affymetrix GeneChip Scanner. Data normalization and further analysis were performed with GeneSpring GX (Agilent Technologies). Proportions of treated cells expressing genes relative to control (KY02111/DMSO) were calculated for each time point. […] The microarray data have been submitted to the Gene Expression Omnibus (GEO) public database at NCBI (GEO accession number, GSE33622).
Total RNA was isolated with an RNeasy Mini Kit (QIAGEN). Genomic DNA was completely digested with DNase I (Invitrogen). Total RNA (0.5 μg) was subjected to cDNA synthesis using the SuperScript III Reverse Transcriptase (Invitrogen). qRT-PCR was performed in triplicate, using SYBER GREEN PCR Master Mix on a 7500 Real Time PCR System (Applied Biosystems). The cycling conditions were as follows: 10 min at 95° C.; 40 cycles, each consisting of 15 s at 95° C.; 1 min at 60° C. Total RNA from human adult heart tissue (BioChain) was used to evaluate the expression levels of cardiac marker genes for cardiomyocytes derived from hPSCs. All values were normalized with respect to GAPDH expression level and expressed relative to the corresponding values in human adult hearts (100%).

[2] = tested on: human αMHC promoter-driven EGFP transgenic monkey ESCs; assay: αMHC promoter-driven GFP expression, cardiac differentiation of transgenic monkey ESCs (HCA); assay type: cell-based; settings: for intensity of the GFP signal driven by αMHC promoter: comparison of chemical and proteinaceous WNT inhibitors, FIG. 3b,c
Excerpt: To generate human αMHC promoter-driven EGFP-expressing monkey ESCs, the 918 bp upstream from the transcriptional starting site and the third exon just before the open reading frame were amplified from genomic DNAs of KhES-1 hESCs by PCR, using the following primer sets —forward primer, 5′- […]-3′ (SEQ ID No: 37); reverse primer, 5′- (including a SalI linker) 22 […]-3′ (SEQ ID No: 38)—and then ligated into pGEM-T Easy Vector (Promega). The HindIII/SalI fragment from the cloning vector was connected with pEGFP-1 (Clontech). The linearized αMHC-EFGP vector was introduced into CMK6.4 monkey ESCs by electroporation. Transgenic ESC clones were selectively grown with G418 (Sigma-Aldrich). The expression of EGEP was confirmed in beating colonies.
The confluent (4-5 d after passage) αMHC-GFP transgenic monkey ESCs were dissociated enzymatically by CTK solution (Non-patent literature 1), and the ESC clumps (40-100 μm in diameter) were obtained using 40 and 100 μm Cell Strainers (BD Biosciences). The ESC clumps (approximately 5.0×10^3 cells well^−1) were transferred onto 96-well plates (Greiner Bio-One, 96-well black plate, Cat. No. 655090) and incubated in cardiac differentiation medium as described in (4) below. During Days 6-14 of cardiac differentiation, 9600 compounds from the chemical library (dissolved in DMSO) were screened using 96-well plates. Sixteen and 80 wells were used for the control (0.1% DMSO) and chemical compounds (1 per well), respectively. Final concentration of the each compound was approximately 1-5 μM. Medium containing small molecules was changed every 4 d. On Day 14, GFP fluorescence of ESCs was measured by whole-plate scanning, using the Metamorph imaging system (Molecular Device). Metamorph software was used to analyze the GFP fluorescence data and calculate Fluorescence Area, Total Fluorescence Intensity, Average Fluorescence Intensity, and number of GFP-positive colonies for each well. Hit compounds were determined by the following criteria: Average Fluorescence Intensity of a well with the compound was >6 SD greater than Average Fluorescence Intensity of the control (mean of 16 wells), and Total Fluorescence Intensity for the compound was >0 SD greater than the control; or Total Fluorescence Intensity of the compound was >4 SD greater than the control, and Average Fluorescence Intensity of the compound was >0 SD greater than the control. One hundred and twenty compounds passed these criteria and were retested using 8 wells for each compound.
Confluent hESCs and hiPSCs were gently detached with CTK solution and transferred into Petri dishes (BD Biosciences) with Primate ES Cell Culture Medium (ReproCELL, Japan). Cells were held in suspension culture for 8-24 h to form aggregates. The sizes of hPSC aggregates (0.3-1 mm in diameter) are important for efficient differentiation. Following suspension culture, cell aggregates were attached to culture dishes (3-10×10^5 cells cm^−2) in cardiac differentiation medium: IMDM (Sigma), containing 20% FBS (Gibco), 1% MEM non-essential amino acid solution (Sigma), 1% Penicillin-Streptomycin (Gibco), 2 mM L-glutamine (Sigma), 0.001% 2-Mercaptoethanol (Gibco), and 0.005N NaOH, with 10 ng ml^−1 BMP4 (R&D Systems). The medium was changed to cardiac differentiation medium with 10 μM KY02111 and/or other WNT inhibitors added on Day 3 (hiPSC lines) or Day 4 (human or monkey ESC lines); XAV939 (Wako, Japan), IWP-2 (Santa Cruz Biotechnology), IWR-1 (Merck4Bioscience), IGFBP4 (R&D Systems), Dkk1 (R&D Systems) and the mixture of bFGF (R&D Systems), BMP4 (R&D Systems), VEGF (R&D Systems), DKK1 (R&D Systems), and Activin A (R&D Systems) (Non-patent literature 16). Medium was changed every 2-3 d. KY02111 and other WNT inhibitors were added until Day 9 for hiPSC lines and the monkey ESC line, or Day 14 for hESC lines. […]

[3] = tested on: human αMHC promoter-driven EGFP transgenic monkey ESCs; assay: as above; assay type: cell-based
KY-CM colony = assay: QT interval prolongation assay on microelectrode array; assay type: cell-based, human; settings: astemizole 300 pM to 30 μM, increased every 4 min
Description: Microelectrode array (MEA) dishes (Multi Channel Systems, Reutlingen, Germany) were coated with ReproCoat (RCESD006, ReproCELL, Japan) in 5% CO2 for 1 h at 37° C. After coating, KY02111-induced cardiomyocytes at Day 30 were transferred into 1 ml of Cardiomyocyte Culture Medium (RCESD006, ReproCELL, Japan) on the MAE dish. Using a pipet tip or glass bar, the cardiomyocytes were gently moved onto the electrode and cultured overnight to attach to the MEA dishes. On the following day, the medium was changed into Cardiomyocyte Test Medium (RCESD003, ReproCELL, Japan). After confirming the presence of beating cardiomyocytes, the MEA dishes were attached to an MEA amplifier (Multi Channel Systems, Reutlingen, Germany), and electrocardiogram-like waves were recorded. After 2 min of recording, 300 pM astemizole (Sigma) or 0.1% DMSO were added, and the concentrations of astemizole (300 pM to 30 μM) were increased every 4 min. ECG-like waves were recorded after 2 min of each astemizole treatment. Beating rate, Na^+ amplitude, K^+ amplitude, and Na^+—K^+ interval were analyzed by LabChart™ software v7 (ADInstruments, Adelaide, Australia).

[4] = tested on: KY02111-induced cardiomyocytes (KY-CMs); settings: depolarizing pulses -40 to +40 mV for 500 msec
Description: Cells were isolated from beating hPSC-derived cardiomyocytes, using protease solution. The dissociated cells were cultured for 3-7 d on gelatin-coated cover glasses. Patch-clamp recordings were performed in a temperature-controlled room at approximately 25° C. Data from the whole cell patch-clamp configuration were recorded from spontaneously beating cells, using a HEKA EPC10 amplifier (HEKA Instruments Inc.). An external solution containing 140 mM NaCl, 5 mM KCl, 10 mM HEPES, 2 mM CaCl2, 1 mM MgCl2, and 10 mM glucose was adjusted to pH 7.2 with NaOH. A pipette solution containing 80 mM K-aspartate, 50 mM KCl, 1 mM MgCl2, 10 mM EGTA, 3 mM ATP-Mg, and 10 mM HEPES was adjusted to pH 7.2 with KOH. […] The inhibitors were obtained from Sigma-Aldrich. […] The current-voltage relationship was obtained by holding the membrane potential at −40 to −60 mV, and delivering a depolarizing pulse for 500 ms in a stepwise manner, in increments from −60 to 60 mV for INa, −40 to 40 mV for ICaL, −40 to 40 mV for IKs and IKr, and −50 to −140 mV for Ih.

O=C1Nc2cc(Br)ccc2/C1=C1/Nc2ccccc2/C1=N\O [BIO]
expression levels of WNT target genes by qPCR [1]: tended to augment

O=C(Nc1cccc2cccnc12)c1ccc(N2C(=O)[C@@H]3[C@H](C2=O)[C@@H]2C=C[C@H]3C2)cc1 [IWR-1, reference compound]
intensity of the GFP signal driven by αMHC promoter [2]: increased

COc1ccc2nc(NC(=O)Cc3ccc(OC)c(OC)c3)sc2c1 [N11474]
GFP fluorescence of ESCs compared to DMSO ([2]; chemical screening, treatment Days 6-14, P=0.015): significantly increased; also recorded: significantly enhanced
αMHC promoter-driven EGFP signal on Day 14 ([3]; treatment after Day 8 (Days 8-12 or Days 10-14)): less effective
αMHC promoter-driven EGFP signal on Day 14 ([3]; treatment on Days 0-4): completely repressed GFP expression; also recorded: completely suppressed GFP expression
αMHC promoter-driven EGFP signal on Day 14 ([3]; treatment on Days 4-8): maximized the increase in GFP expression; also recorded: most effective
αMHC promoter-driven EGFP signal on Day 14 ([3]; treatment on Days 6-10): similarly effective to the screening protocol

COc1ccc(CCN2CCC(Nc3nc4ccccc4n3Cc3ccc(F)cc3)CC2)cc1 [astemizole]
Na+-K+ interval of ECG-like waves (KY-CM colony): prolonged

CCS(=O)(=O)N(C)[C@H]1c2cc(C#N)ccc2OC(C)(C)[C@@H]1O [chromanol293B]
KCNQ1 current (IKs) [4]: clearly detected
KCNQ1 current (IKs) ([4]; listed as Chromanol293B): suppressed

COc1ccc(CCCC(=O)Nc2nc3ccc(Cl)cc3s2)cc1OC [KY02114, 2-(4-(3,4-dimethoxyphenyl)butanamide)-6-chlorobenzothiazole]
GFP expression level induced by N11474 and related compounds (structure-activity) ([2]; DMSO=100%): induced the highest levels

B1: IGFBP4: proteinaceous WNT inhibitor (protein, UniProt P22692 22-258, looked up)
Insulin-like growth …: DEAIHCPPCSEEKLARCRPPVGCEELVREPGCGCCATCALGLGMPCGVYTPRCGSGLRCYPPRGVEKPLHTLMHGQGVCMELAEIEAIQESLQPSDKDEGDHPNNSFSPCSAHDRRCLQKHFAKIRDRSTSGGKMKVNGAPREDARPVPQGSCQSELHRALERLAASQSRTHEDLYIIPIPNCDRNGNFHPKQCHPALDGQRGKCWCVDRKTGVKLPGGLEPKGELDCHQLADSFRE
intensity of the GFP signal driven by αMHC promoter [2]: increased

B2: DKK1: proteinaceous WNT inhibitor (protein, UniProt O94907 32-266, looked up)
Dickkopf-related protein 1: TLNSVLNSNAIKNLPPPLGGAAGHPGSAVSAAPGILYPGGNKYQTIDNYQPYPCAEDEECGTDEYCASPTRGGDAGVQICLACRKRRKRCMRHAMCCPGNYCKNGICVSSDQNHFRGEIEETITESFGNDHSTLDGYSRRTTLSSKMYHTKGQEGSVCLRSSDCASGLCCARHFWSKICKPVLKEGQVCTKHRRKGSHGLEIFQRCYCGEGLSCRIQKDHHQASNSSRLHTCQRH
intensity of the GFP signal driven by αMHC promoter [2]: increased
